# Measured values published in US20080234317A1, “METHODS FOR THE IMPROVEMENT OF MEMORY AND NEUROLOGICAL FUNCTION COMPRISING THE ADMINISTRATION OF COMPOSITIONS THAT ACT AS INHIBITORS OF THE SODIUM PROTON (NA+ /H+ ) EXCHANGER, SUBTYPE 5 (NHE-5)” (SANOFI-AVENTIS, priority 2005, published 2008).
# Where a name gives a salt, the structure may show the parent alone.
# Tests used:
# NHE-5 = target: T1, NHE-5 (Homo sapiens, UniProt Q14940); experiment: recovery of intracellular pH in LAP1 cells stably expressing NHE subtypes after acidification (BCECF, FLIPR); format: cell-based; conditions: LAP1 cells expressing NHE-5; pH recovery registered for two minutes
# T1 construct: expressed in transfected cells
# T1 sequence (Q14940 1-896): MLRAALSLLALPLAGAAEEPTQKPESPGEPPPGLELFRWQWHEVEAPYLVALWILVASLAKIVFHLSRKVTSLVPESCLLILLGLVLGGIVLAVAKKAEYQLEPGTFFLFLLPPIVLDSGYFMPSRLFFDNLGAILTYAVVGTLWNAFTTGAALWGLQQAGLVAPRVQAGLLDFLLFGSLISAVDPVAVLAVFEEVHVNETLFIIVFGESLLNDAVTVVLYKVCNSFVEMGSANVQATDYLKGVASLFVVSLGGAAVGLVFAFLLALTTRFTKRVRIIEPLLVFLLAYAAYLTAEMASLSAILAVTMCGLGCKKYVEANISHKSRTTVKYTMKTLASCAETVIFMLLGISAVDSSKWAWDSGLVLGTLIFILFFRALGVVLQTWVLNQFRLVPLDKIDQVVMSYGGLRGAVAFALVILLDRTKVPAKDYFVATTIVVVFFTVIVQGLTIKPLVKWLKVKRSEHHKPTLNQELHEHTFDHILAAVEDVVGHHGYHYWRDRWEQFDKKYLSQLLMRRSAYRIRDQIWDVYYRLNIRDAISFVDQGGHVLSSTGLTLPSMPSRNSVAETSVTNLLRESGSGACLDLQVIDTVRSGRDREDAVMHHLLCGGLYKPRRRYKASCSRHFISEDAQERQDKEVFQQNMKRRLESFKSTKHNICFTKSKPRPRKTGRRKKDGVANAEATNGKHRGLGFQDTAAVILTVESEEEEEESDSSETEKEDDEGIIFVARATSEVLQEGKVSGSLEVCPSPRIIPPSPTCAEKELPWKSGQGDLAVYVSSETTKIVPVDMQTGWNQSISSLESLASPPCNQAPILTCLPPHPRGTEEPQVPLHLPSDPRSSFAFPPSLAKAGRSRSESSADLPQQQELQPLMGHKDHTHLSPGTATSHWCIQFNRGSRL
# Protocol: In order to obtain pharmacological data for NHE-5 inhibition, the recovery in the intracellular pH (pHi) of LAP1 cells, which stably express the different subtypes of the sodium-proton exchanger (NHE), was determined after an acidification. This recovery occurs even under bicarbonate-free conditions in the case of functioning NHE. To this end, the pHi was determined with the pH-sensitive fluorescent dye BCECF (Molecular Probes, Eugene, Oreg., USA; the precursor BCECF-AM is used). […] The pH recovery was started by the addition of 90 μl of Na^+-containing buffer (133.8 mM NaCl, 4.7 mM KCl, 1.25 mM CaCl2, 1.25 mM MgCl2, 0.97 mM Na2HPO4, 0.23 mM NaH2PO4, 10 mM Hepes, 5 mM glucose; a pH of 7.4 is established with 1 M NaOH) in the analytical instrument (FLIPR, “Fluorometric Imaging Plate Reader”, Molecular Devices, Sunnyvale, Calif., USA). The BCECF fluorescence was determined at an excitation wavelength of 498 nm and the FLIPR emission filter 1 (band gap from 510 to 570 nm). The subsequent changes in fluorescence were registered for two minutes at NHE-5 as a measure of the pH recovery. […] From the percentages of the pH recovery, the IC50 value of the particular substance for the individual NHE subtypes was calculated by means of the program XLFit (idbs, Surrey, UK).
# [1] = test system: LTP in the CA 1 region of the hippocampus section; experiment: early LTP after weak tetanus in hippocampus sections, CA 1 region (fEPSP slope); format: cell-based, Wistar rats; conditions: 10 μM
SMILES,melting point,IC50 (NHE-5) [nM],"potentiation of the EPSP, % of the baseline ([1]; flushed 20 min before stimulation, washed out 20 min after, 80 min after the stimulus, control 113%)","intrinsic effect on synaptic transmission ([1]; baseline recording before tetanus, rat hippocampus sections)","maintenance of the weak LTP ([1]; weak tetanus, rat hippocampus sections)"
"CN1Cc2c(Cl)cc(Cl)cc2C(c2ccc(S(=O)(=O)N=C(N)N)cc2)C1 (centres unmarked) (as salt: hydrochloride) [Example 1, N-Diaminomethylene-4-(6,8-dichloro-2-methyl-1,2,3,4-tetrahydroisoquinolin-4-yl)benzenesulfonamide, dihydrochloride]",140 °C (dec.),,,,
"CN1Cc2c(Cl)cc(Cl)cc2C(c2ccc(S(=O)(=O)N=C(N)N)cc2)C1 (centres unmarked) [Example 1, N-Diaminomethylene-4-(6,8-dichloro-2-methyl-1,2,3,4-tetrahydroisoquinolin-4-yl)benzenesulfonamide, dihydrochloride]",,370,under 137 % of the baseline,no intrinsic effect on synaptic transmission,improve maintenance of the weak LTP
